Data reported in patent US6841577B2, “Pesticidal activity of plant essential oils and their constituents” (Ecosmart Technologies, Inc., priority 1999, dated 2005).
Where two headings read alike, the source gives them in different places.

Columns and labels:
larvae = test: Feeding deterrence of carvacrol; assay type: in vivo; settings: on doubling the concentration
Source text: FIG. 6 is a graph of the feeding deterrence of carvacrol vs. larvae.
The 5-blend can be considered as a relatively broad spectrum pesticide. […] The effect of concentration of the pesticide is shown in […] where a doubling in the concentration of carvacrol produces a 3-4 fold increase in deterrence of feeding.

[1] = test system: octopamine receptor sites; test: 3H-OA binding to ventral nerve cord / synaptosomal membrane protein; design: species or system American cockroach (Periplaneta americana); settings: for classification with respect to octopamine receptor sites (OAR): based on the binding data of Tables 1-3; for cpm 3H-OA/500 μg protein: Table 3
Protocol: Different concentrations of unlabeled octopamine (OA) (20, 30, 40, 50, 60, 100 ng) were tested on the binding activity as a positive control. Test chemicals were dissolved in acetone before the assay. Different concentrations of the test chemicals were added directly to the protein preparation from ventral nerve cord. The same amount of solvent (1 μl 0.1%) were added to the control samples. All assays with test chemicals were run in the presence and absence of 50 ng OA. All chemicals were added to the protein extract 20 min prior the addition of radio labeled ^3H-OA(100,000 cpm/sample). After 30 min at 24° C. of the addition of ^3H-OA, the reaction was stopped by the addition of ice-cold Tris buffer, and the samples were filtered through GF/C membrane using water vacuum. After two washes each with 5 ml Tris buffer, the membrane was removed, air dried and the radioactivity was counted in 4 ml liquid scintillation solution. The specific binding was calculated as the difference between the values in the presence and absence of unlabeled OA. All data are calculated as the mean±standard deviation of 5 assays.
Additional tests were conducted on radio labeled octopamine using other purified naturally occurring materials as given in Tables 2 and 3.

American cockroach = test: Cross walk jar test on pre-treated surface; assay type: in vivo; settings: for pesticidal activity against cockroaches, in words: in vivo
Protocol: In the test, a known amount of the test material was dissolved in a known volume of acetone and applied to small jars and all inner bottom surfaces were covered. The bottom surface of each jar is approximately 250 cm^2. One hour after the acetone had completely evaporated, five American cockroaches were introduced to each jar. Control jars were treated exactly as above but with the known amount of acetone only.
The results of the “cross walk” jar tests are in Table 8 in which the “4-blend” was dispersed as an aerosol and a dust in the jar.
In this test, the acetone solution of the test material was placed in the jar and the roach inserted into the jar after the acetone had evaporated.
Mortality was measured 24 hours after exposure.
The “4-blend” and the individual constituents of the “4-blend” were tested using 10 cockroaches for each “cross walk” treatment. In addition, pyrethrins were tested separately and mixed with the various components.
A concentration of 100 mg/jar was used for each individual alone. In the co-treatment experiment without pyrethrins, 20 mg/jar for each chemical was used. In the cotreatment experiment with pyrethrins, 20 mg/jar for the naturally occurring plant material was used. Pyrethrins was used at 2 mg/jar. […] It was noted above that the mortality is dependent upon concentration. […] Some synergism is found between pyrethrins and either α-terpineol or benzyl alcohol.

[2] = test system: 2nd instar green peach aphid nymphs; test: Cabbage leaf disc bioassay; assay type: in vivo
Protocol: A bioassay similar to that for S. litura larvae was used for additional larvae. Cabbage leaf discs were dipped in emulsified aqueous solutions, diluted 1:200 in water, on which 2nd instar green peach aphid nymphs were placed. For each treatment there was 10 aphids per disc with 5 replicates; each experiment was replicated in time (successive days) from 3-5 times. After 24 hours, aphids were reported as being (1) on the leaf disc and feeding; (2) alive, but walking off the disc; or (3) dead. In the field, aphids which cease feeding and abandon a host plant are very unlikely to survive.

[3] = test system: 3rd instar Asian armyworms (Spodoptera litura); settings: for Mortality (%): control 0
Protocol: Additional synergistic testing was conducted on 3rd instar Asian armyworms (Spodoptera litura). […] The number of replicates is given as “n”.

[4] = 500 ng/ml, solvent control 1385 ± 101

SMILES | classification with respect to octopamine receptor sites (OAR) [1] | mortality at 10 mg (American cockroach; Periplaneta americana, 24 h) [%] | mortality at 20 mg (American cockroach; Periplaneta americana, 24 h) [%] | mortality at 40 mg (American cockroach; Periplaneta americana, 24 h) [%] | mortality at 50 mg (American cockroach; Periplaneta americana, 24 h) [%] | mortality at 100 mg (American cockroach; Periplaneta americana, 24 h) [%] | pesticidal activity against cockroaches, in words (American cockroach) | cpm 3H-OA/500 μg protein [1, 4] [cpm 3H-OA/500 μg protein] | further results
Cc1ccc(C(C)C)cc1O [Carvacol, Carvacrol] | OAR Agonists | 0 | 20 | 50 | 80 | 100 | high pesticidal activity |  | increase in deterrence of feeding (larvae): 3-4 fold; agonist/antagonist note to 3H-OA binding ([1]; 1000 ng/ml): agonist; dpm 3H-OA/500 μg protein ([1]; 1000 ng/ml, Table 2, solvent control 930 ± 89): 2366 ± 149 dpm 3H-OA/500 μg protein
CCC(=O)OCCc1ccccc1 [Phenethyl propionate] | extremely high OAR antagonists | 30 | 40 | 90 | 100 | 100 | high pesticidal activity | 0173 ± 022 | activity on green peach aphid nymphs, in words ([2]; 1:200 dilution): essentially inactive; Percentage of aphids Dead ([2]; n = 250, Table 17, control 8.7): 13.3%; Percentage of aphids Walking (off disc) ([2]; n = 250, Table 17, control 15.3): 25.3%; Percentage of aphids Feeding ([2]; n = 250, Table 17, control 76.0): 62.0%; activity on Asian armyworms, in words ([3]; in vivo): relatively low activity; activity/binding at octopamine receptor sites, in words [1]: antagonists which are most strongly bound; agonist/antagonist note to 3H-OA binding ([1]; 500 ng/ml): antagonist; mortality at 30 mg (American cockroach; Periplaneta americana, 24 h): 60%
Cc1ccc(C(C)C)c(O)c1 [Thymol] | Non-OAR Specific Toxicants |  |  | 80 |  | 100 |  | 1310 ± 91 | Mortality (%) ([3]; diluted 1:400 with water, n = 50, Table 12): 98%; Mortality (%) ([3]; dilution rate 1:500, n = 150, Table 14 right): 24.5%; Mortality (%) ([3]; n = 50, Table 13 right, 1:500 printed for Thymol only): 29%; cpm 3H-OA/500 μg protein ([1]; 1000 ng/ml, solvent control 1915 ± 110): 806 ± 71 cpm 3H-OA/500 μg protein
